Results from patent US8388953B2, “Method of increasing cathepsin B-induced cleavage of amyloid-β peptides” (The J. David Gladstone Institutes, priority 2006, dated 2013).

Columns and labels:
[1] = test system: CatB in N2A cells; test: N2A cells treated with Aβ peptides: CatB mRNA (quantitative RT-PCR) and CatB activity; type: cell-based, murine; details: 20 μM; for CatB enzymatic activities / CatB mRNA levels: nonaggregated peptide, 24 h
Protocol: (§1) Unless otherwise noted, all cell culture supplies, medium, and antibiotics were from Invitrogen (Carlsbad, Calif.). The murine neuronal cell line N2A was maintained in Dulbecco's modified Eagle's medium (DMEM) with 10% heat-inactivated fetal bovine serum (FBS), 100 U/ml penicillin G, and 100 μg/ml streptomycin at 37° C. in a humidified atmosphere containing 5% CO2. Before treatment, the medium was replaced with Neurobasal A medium supplemented with N2, and the cells were treated with fresh Aβ1-42 or Aβ1-40 at various concentrations for 24 h.
(§2) Aβ1-42 and Aβ1-40 were from rPeptide (Athens, Ga.). Aβ powders lyophilized with hexafluoroisopropanol were reconstituted in dry dimethylsulfoxide (Sigma) at a concentration of 5 mM. Aggregated Aβ1-42 was prepared based on protocols developed in previous studies (Dahlgren et al., 2002; Lambert et al., 1998). For protofibrillar Aβ1-42 preparations, DMEM/F-12 was added to achieve a final peptide concentration of 100 μM and incubated at 4° C. for 24 h. For fibrillar conditions, 10 mM HCl was added to achieve a final peptide concentration of 100 μM and incubated for 24 h at 37° C. For unaggregated conditions (fresh Aβ), the 5 mM Aβ in […] was diluted directly into cell-culture medium. For Aβ1-40 aggregation, Aβ1-40 was reconstituted in H2O at a concentration of 5 mg/ml, and incubated for one week at 37° C.
(§3) CatB activities in N2A cells or in hippocampus of hAPP mice and their littermate controls were quantified with the Innozyme Cathepsin B Activity Assay Kit (EMD Biosciences), according to the manufacturer's instructions. Cells or hippocampi were lysed in lysis buffer in the absence of proteinase inhibitors, preactivated with 4 mM cysteine, and incubated with the synthetic substrate Z-Arg-Arg AMC at 37° C. for 30 min. Released free AMC was determined fluorometrically as above. The enzymatic activities inhibited by CA074 were defined as CatB-specific activities. Protein concentrations were measured with the BCA protein assay kit (Pierce) and used to normalize CatB activities.
Expression of CatB was measured by quantitative RT-PCR. Total RNA in N2A cells was isolated with Trizol reagent (Invitrogen). After treatment with RNase-free DNase (Ambion) for 30 min at 37° C., total RNA (60 ng/ml) was reverse-transcribed with random hexamers and oligo d(T) primers. The expression of CatB relative to GAPDH was determined with SYBR green dye chemistry and an ABI Prism 7700 sequence detector (Applied Biosystems, Foster City, Calif.), as recommended by the manufacturer. Primer quality was verified by dissociation curve analysis, the slopes of standard curves, and reactions without RT. The following primers were used: mouse CatB (forward 5′-[…]-3′ (SEQ ID NO:7); reverse 5′-[…]-3′ (SEQ ID NO:8)) and mouse GAPDH (forward 5′-[…]-3′ (SEQ ID NO:9); reverse 5′-[…]-3′ (SEQ ID NO:10)).

[2] = test system: Aβ1-42; test: In vitro cleavage assay of Aβ1-42 by purified CatB (SELDI-TOF MS, western blot, electron microscopy); type: biochemical
Protocol: as §2
Aβ1-42 and Aβ1-40 samples were characterized by negative-staining electron microscopy (JEOL 1230, Peabody, Mass.). Samples were prepared with “matured” carbon-coated grids and 2% potassium phosphotungstate, pH 6.5, using the drop method (Hamilton et al., 1980), and examined at 80 KV with a condenser aperture of 200 μm and an objective aperture of 50 μm. Images were obtained with a Gatan Ultrascan USC1000 digital camera (Gatan, Warrendale, Pa.).
(§4) Different amounts of purified CatB from human liver (Sigma) were preactivated with 4 mM cysteine at room temperature for 5 min in assay buffer, pH 6.0 or 7.0 after adjustment (Cathepsin B Activity Assay Kit, EMD Biosciences). Then, 20 ng of fresh, protofibrillar, or fibrillar Aβ1-42 was added and incubated at 37° C. for 120 min. All samples were run in parallel with and without the specific CatB inhibitor CA074. CatB-induced peptidase cleavage of Aβ1-42 was detected with mass spectrometry. Briefly, 5 μl of the reaction mixture was applied to an NP-20 normal-phase chip (Ciphergen Biosystems, Fremont, Calif.), and the spots were washed with water and air-dried. Twenty percent α-cyano-4-hydroxycinnamic acid in 50% acetonitrile, 0.5% trifluoroacetic acid (2×0.5 μl) was applied, and the chips were allowed to dry. Samples were analyzed in a PBS ITC SELDI-TOF mass spectrometer (Ciphergen) as an average of 160 shots for each spot. The system was calibrated daily with All-in-One peptide standards (Ciphergen) and synthetic Aβ1-42.
(§5) The products were also analyzed by western blotting on acid-urea gels with an anti-Aβ antibody (3D6) as described (DeMattos et al., 2001; Esposito et al., 2004) or on a Tricine SDS-PAGE. Briefly, 10 μl of the reaction mixture were resolved on 16% tricine gels and transferred to nitrocellulose membranes. Membranes were labeled with 21F12 (1:2000, Elan Pharmaceuticals), an antibody specific for Aβ1-42, to detect low MW Aβ1-42 oligomers. Since 21F12 was unable to detect higher MW assemblies, 3D6 (1:2000, Elan) was also used for immunoblotting. After incubation with an HRP-conjugated sheep anti-mouse IgG (1:2000; Amersham) secondary antibody, blots were developed with an ECL system (Perkin Elmer).

[3] = test system: cathepsin B activity in neuronal cells (N2a); test: CatB activity assay in N2a cells treated with indomethacin; type: cell-based, murine; details: indomethacin 25 μM-75 μM, 18-24 h
Protocol: as §1, §3
Neurobiatoma cell N2a cells were treated with indomethacin (25 μM-75 μM) for 18-24 h before being harvested for CatB activity assay.

[4] = target: T1, purified CatB from human liver (Homo sapiens, UniProt P07858); test: Inhibition of CatB-induced Aβ1-42 cleavage by CA074 in the in vitro cleavage assay; type: biochemical
T1 construct: purified CatB from human liver (Sigma); purchased Sigma; host or cells: human liver (tissue-purified)
Protocol: as §4, §5

With “Aβ1-42: amyloid-β peptide 1-42 from rPeptide” the CatB enzymatic activities [1] was “markedly increased” and the “CatB mRNA levels” value [1] was “markedly increased”.

In the case of “CatB: purified CatB from human liver (Sigma), preactivated with cysteine”, the “amounts of high-molecular-weight Aβ assemblies” value ([2]; Tricine SDS-PAGE, CatB 1-2 μg/ml) is reported as “marked decrease”, the “levels of low-MW Aβ1-42 oligomers and monomers” value ([2]; Tricine SDS-PAGE, antibody specific for Aβ1-42) is reported as “also reduced” and the “proteolytic products from fresh (nonaggregated) Aβ1-42” value ([2]; cell-free, pH 6.0, CatB 100-2500 ng/ml, SELDI-TOF) is reported as “dose-dependent generation of Aβ1-40, Aβ1-38, and Aβ1-33”. For the same compound, the “amount of fibrillar structures of preformed Aβ1-42 fibrils” value ([2]; electron microscopy) was “did reduce the amount of fibrillar structures”, the “ability to cleave Aβ, especially nonaggregated (fresh) Aβ” value ([2]; neutral pH (~7.0)) was “markedly reduced” and the “cleavage of protofibrillar Aβ1-42” value ([2]; pH 6.0) was “cleaved by CatB as efficiently as nonaggregated preparations”.

For “Aβ1-40: amyloid-β peptide 1-40 from rPeptide; tested nonaggregated and preaggregated”, the CatB enzymatic activities [1] was “little or no effect”, the “CatB mRNA levels” value [1] was “little or no effect” and the CatB activity ([1]; preaggregated peptide) was “modest but significant increase”.

For `COc1ccc2c(c1)c(CC(=O)O)c(C)n2C(=O)c1ccc(Cl)cc1` [indomethacin], the CatB activity [3] was “significant increase in CatB activity in a dose-dependent manner”.

For `CCCNC(=O)[C@H]1O[C@@H]1C(=O)N[C@H](C(=O)N1CCC[C@H]1C(=O)O)[C@@H](C)CC` [CA074], the “effect of the inhibitor on CatB-induced decrease of Aβ assemblies” value ([4]; Tricine SDS-PAGE) was “significantly diminished such effects”, the “effect of the inhibitor on CatB-induced reduction of Aβ1-42 fibrils” value ([4]; electron microscopy) was “inhibition with CA074” and the “CatB-induced truncations of Aβ1-42 in the presence of the inhibitor” value ([4]; pH 6.0, SELDI-TOF) was “No truncations occurred”.
